Test results published in patent US20230150980A1, “COLLAGEN 1 TRANSLATION INHIBITORS AND METHODS OF USE THEREOF” (Anima Biotech Inc., priority 2020, published 2023).
Counter-ions that a name gives are not always drawn.

What follows are molecules tested on collagen 1 (assay: WI-38 collagen 1 inhibition assay (anti-Collagen I immunofluorescence)). Details: cellular EC50, WI-38 human lung fibroblasts, values are LogEC50 classes.
Type: cell-based
Description: WI-38 cells (ATCC® CCL-75™) were maintained in MEM EAGLE (NEAA) W. GLUTAMIN (Biological Industries, Cat. 06-1040-15-1A) containing 10% fetal bovine serum (FBS) and 1% Penicillin-Streptomycin Solution. To synchronize the cells (cell cycle synchronization) prior to induction of collagen synthesis, the cells were starved using DMEM-low glucose supplemented with 0.25% FBS for two hours and then without FBS for 24 hours. To induce collagen synthesis, the cells were treated with a collagen induction cocktail for the indicated time. Compounds were added with induction.
Cells in 96-well or 384-well plates were fixed for 20 min in 4% paraformaldehyde (PFA, ENCO, Cat. sc-281692). Following two washes with 1×PBS, cells were treated with hydrogen peroxide (Acros, Cat: 7722-84-1) for 10 minutes and then washed twice with 1×PBS. Cells were then incubated over-night at 4° C. with Anti-Collagen I (Sigma-Aldrich, Cat: C 2456) antibody and washed three times with 1×PBS. Cell were then incubated with a suitable secondary fluorescently-tagged antibody and nuclei stained with DAPI, for 1 hour, and then washed 3 times with 1×PBS.
Cell images were taken with Operetta (Perkin Elmer, USA), a wide-field fluorescence microscope at 20× magnification. After acquisition, the images were transferred to Columbus software (Perkin-Elmer) for image analysis. In Columbus, cells were identified by their nucleus, using the “Find Nuceli” module and cytoplasm was detected based on the secondary antibody channel. Subsequently, the fluorescent signal was enumerated in the identified cell region. Data was exported to a data analysis and visualization software, Tibco Spotfire, USA.
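Note: minus sign means inactive.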

**Q.** `Cc1cc2c(N3CCN(Cc4nc5ccccc5[nH]4)CC3)ncnc2s1` [compound 205] was tested. Which “COL1 Efficacy (LogEC50)” value did it give?
**A.** ++ (++: −5 to −6)

**Q.** Which “COL1 Efficacy (LogEC50)” value does the source give for `COCCOc1ccc2[nH]c(CN3CCN(c4ccncc4)CC3)cc2c1` [compound 260, 5-(2-methoxyethoxy)-2-[[4-(4-pyridyl)piperazin-1-yl]methyl]-1H-indole] here?
**A.** ++ (++: −5 to −6)

**Q.** Which “COL1 Efficacy (LogEC50)” value does the source give for `Clc1c(CN2CCN(c3ccncc3)CC2)[nH]c2ccccc12` [compound 248, 3-chloro-2-[[4-(4-pyridyl)piperazin-1-yl]methyl]-1H-indole] here?
**A.** +++ (+++: <−6)

**Q.** How did the “COL1 Efficacy (LogEC50)” value turn out when `c1ccc2[nH]c(CN3CCN(c4cc(-n5cccn5)ncn4)CC3)nc2c1` [compound 208] was run?
**A.** ++ (++: −5 to −6)

**Q.** Which “COL1 Efficacy (LogEC50)” value does the source give for `CCc1cncnc1N1CCN(Cc2cc3ccc(COCCOC)cc3[nH]2)CC1` [compound 291, 2-((4-(5-ethylpyrimidin-4-yl)piperazin-1-yl)methyl)-6-((2-methoxyethoxy)methyl)-1H-indole] here?
**A.** +++ (+++: <−6)

**Q.** Which “COL1 Efficacy (LogEC50)” value does the source give for `Cc1ncnc(N2CCN(Cc3nc4cc(C(F)(F)F)ccc4o3)CC2)c1C` [compound 299, 2-((4-(5,6-dimethylpyrimidin-4-yl)piperazin-1-yl)methyl)-5-(trifluoromethyl)benzo[d]oxazole] here?
**A.** +++ (+++: <−6)

**Q.** How did the “COL1 Efficacy (LogEC50)” value turn out when `COc1ccc2cc(CN3CCN(c4ccncc4)CC3)[nH]c2c1` [compound 228, 6-methoxy-2-[[4-(4-pyridyl)piperazin-1-yl]methyl]-1H-indole] was run?
**A.** + (+: >−5)

**Q.** `c1cncc(CN2CCN(Cc3cc4ccccc4[nH]3)CC2)c1` [Compound 218, 2-[[4-(3-pyridylmethyl)piperazin-1-yl]methyl]-1H-indole] was tested. Which “COL1 Efficacy (LogEC50)” value did it give?
**A.** + (+: >−5)

**Q.** For `O=C(c1cccnc1)N1CCN(Cc2cc3ccccc3[nH]2)CC1` [Compound 231, [4-(1H-indol-2-ylmethyl)piperazin-1-yl]-(3-pyridyl)methanone], which “COL1 Efficacy (LogEC50)” value is on record?
**A.** −

**Q.** With `c1ccc2oc(CN3CCN(c4c[nH]nn4)CC3)nc2c1` [compound 332] as the molecule, how does the “COL1 Efficacy (LogEC50)” value read?
**A.** −

**Q.** Which “COL1 Efficacy (LogEC50)” value does the source give for `Cc1ncnc(N2CCN(Cc3nc4cccc(F)c4o3)CC2)c1C` [compound 305, 2-((4-(5,6-dimethylpyrimidin-4-yl)piperazin-1-yl)methyl)-7-fluorobenzo[d]oxazole] here?
**A.** ++ (++: −5 to −6)

**Q.** For `c1ccc2oc(CN3CCN(c4ccncc4)CC3)nc2c1` [compound 282, 2-[[4-(4-pyridyl)piperazin-1-yl]methyl]-1,3-benzoxazole formate], which “COL1 Efficacy (LogEC50)” value is on record?
**A.** + (+: >−5)

**Q.** How did the “COL1 Efficacy (LogEC50)” value turn out when `c1ccc2[nH]c(CN3CC4(C3)CN(c3ccncc3)C4)cc2c1` [compound 271, 2-[[2-(4-pyridyl)-2,6-diazaspiro[3.3]heptan-6-yl]methyl]-1H-indole] was run?
**A.** −

**Q.** With `Cn1ccc(N2CCN(Cc3nc4ccccc4o3)CC2)n1` [compound 324, 2-((4-(1-methyl-1H-pyrazol-3-yl)piperazin-1-yl)methyl)benzo[d]oxazole] as the molecule, how does the “COL1 Efficacy (LogEC50)” value read?
**A.** + (+: >−5)

**Q.** `OC1(c2ccncc2)CCN(Cc2cc3ccccc3[nH]2)CC1` [compound 267, 1-(1H-indol-2-ylmethyl)-4-(4-pyridyl)piperidin-4-ol] was tested. Which “COL1 Efficacy (LogEC50)” value did it give?
**A.** −

**Q.** With `Cc1ncnc(N2CCN(Cc3nc4ccccc4o3)CC2)c1C=O` [compound 336, 4-(4-(benzo[d]oxazol-2-ylmethyl)piperazin-1-yl)-6-methylpyrimidine-5-carbaldehyde] as the molecule, how does the “COL1 Efficacy (LogEC50)” value read?
**A.** ++ (++: −5 to −6)

**Q.** Which “COL1 Efficacy (LogEC50)” value does the source give for `Cn1cc(N2CCN(Cc3nc4ccc(F)cc4o3)CC2)nn1` [compound 323] here?
**A.** −

**Q.** Which “COL1 Efficacy (LogEC50)” value does the source give for `Cc1ncnc(N2CCN(C3(c4nc5ccccc5o4)CC3)CC2)c1C` [compound 321, 2-(1-(4-(5,6-dimethylpyrimidin-4-yl)piperazin-1-yl)cyclopropyl)benzo[d]oxazole] here?
**A.** ++ (++: −5 to −6)

**Q.** With `Clc1ccc2[nH]c(CN3CCN(c4ccncc4)CC3)cc2c1` [compound 245, 5-chloro-2-[[4-(4-pyridyl)piperazin-1-yl]methyl]-1H-indole formate] as the molecule, how does the “COL1 Efficacy (LogEC50)” value read?
**A.** −

**Q.** With `Cc1ncnc(N2CCN(Cc3nc4cc(F)ccc4o3)CC2)c1C` [compound 297, 2-((4-(5,6-dimethylpyrimidin-4-yl)piperazin-1-yl)methyl)-5-fluorobenzo[d]oxazole] as the molecule, how does the “COL1 Efficacy (LogEC50)” value read?
**A.** ++ (++: −5 to −6)

**Q.** How did the “COL1 Efficacy (LogEC50)” value turn out when `c1ccc2[nH]c(CN3CCN(c4ccncc4)CC3)nc2c1` [compound 253, 2-[[4-(4-pyridyl)piperazin-1-yl]methyl]-1H-benzimidazole] was run?
**A.** ++ (++: −5 to −6)

**Q.** With `O=C(C1CCCCC1)N1CCN(Cc2cc3ccccc3[nH]2)CC1` [Compound 232, Cyclohexyl-[4-(1H-indol-2-ylmethyl)piperazin-1-yl]methanone] as the molecule, how does the “COL1 Efficacy (LogEC50)” value read?
**A.** ++ (++: −5 to −6)

**Q.** `c1ccn2cc(CN3CCN(c4ccncc4)CC3)nc2c1` [compound 274, 2-[[4-(4-pyridyl)piperazin-1-yl]methyl]imidazo[1,2-a]pyridine] was tested. Which “COL1 Efficacy (LogEC50)” value did it give?
**A.** −

**Q.** Which “COL1 Efficacy (LogEC50)” value does the source give for `c1cnc2[nH]c(CN3CCN(c4ccncc4)CC3)cc2c1` [compound 275, 2-[[4-(4-pyridyl)piperazin-1-yl]methyl]-1H-pyrrolo[2,3-b]pyridine] here?
**A.** −

**Q.** How did the “COL1 Efficacy (LogEC50)” value turn out when `c1ccn2nc(CN3CCN(c4ccncc4)CC3)cc2c1` [compound 283, 2-((4-(pyridin-4-yl)piperazin-1-yl)methyl)pyrazolo[1,5-a]pyridine 2,2,2-trifluoroacetate] was run?
**A.** −

**Q.** With `CN1CCC(N2CCN(Cc3cc4ccccc4[nH]3)CC2)CC1` [Compound 227, 2-[[4-(1-methyl-4-piperidyl)piperazin-1-yl]methyl]-1H-indole] as the molecule, how does the “COL1 Efficacy (LogEC50)” value read?
**A.** −

**Q.** `Cc1ncnc(N2CCN(Cc3nc4ccccc4[nH]3)CC2)c1C` [compound 257, 2-[[4-(5,6-dimethylpyrimidin-4-yl)piperazin-1-yl]methyl]-1H-benzimidazole] was tested. Which “COL1 Efficacy (LogEC50)” value did it give?
**A.** ++ (++: −5 to −6)

**Q.** `c1cc(CN2CCN(c3ccncc3)CC2)c2cc[nH]c2c1` [compound 263, 4-[[4-(4-pyridyl)piperazin-1-yl]methyl]-1H-indole] was tested. Which “COL1 Efficacy (LogEC50)” value did it give?
**A.** −

**Q.** With `c1ccc2[nH]c(CN3CCN(C4CCCC4)CC3)cc2c1` [Compound 233, 2-[(4-cyclopentylpiperazin-1-yl)methyl]-1H-indole] as the molecule, how does the “COL1 Efficacy (LogEC50)” value read?
**A.** + (+: >−5)

**Q.** Which “COL1 Efficacy (LogEC50)” value does the source give for `Cc1ncnc(N2CCN(Cc3nc4ccccc4o3)CC2)c1C(F)(F)F` [compound 311, 2-((4-(6-methyl-5-(trifluoromethyl)pyrimidin-4-yl)piperazin-1-yl)methyl)benzo[d]oxazole] here?
**A.** + (+: >−5)

**Q.** For `Cc1ncnc(N2CCN(Cc3nc4ccccc4s3)CC2)c1C` [compound 254, 2-[[4-(5,6-dimethylpyrimidin-4-yl)piperazin-1-yl]methyl]-1,3-benzothiazole], which “COL1 Efficacy (LogEC50)” value is on record?
**A.** +++ (+++: <−6)

**Q.** `c1ccc2[nH]c(CN3CCN(c4nccc5occc45)CC3)cc2c1` [Compound 235, 4-[4-(1H-indol-2-ylmethyl)piperazin-1-yl]furo[3,2-c]pyridine] was tested. Which “COL1 Efficacy (LogEC50)” value did it give?
**A.** + (+: >−5)

**Q.** With `c1ccc2[nH]c(CN3CCN(c4ccnc5ccccc45)CC3)cc2c1` [Compound 236, 4-[4-(1H-indol-2-ylmethyl)piperazin-1-yl]quinolone] as the molecule, how does the “COL1 Efficacy (LogEC50)” value read?
**A.** ++ (++: −5 to −6)

**Q.** With `c1cnc2cc(CN3CCN(c4ccncc4)CC3)[nH]c2c1` [compound 284, 2-[[4-(4-pyridyl)piperazin-1-yl]methyl]-1H-pyrrolo[3,2-b]pyridine] as the molecule, how does the “COL1 Efficacy (LogEC50)” value read?
**A.** −

**Q.** How did the “COL1 Efficacy (LogEC50)” value turn out when `Cn1cnc(N2CCN(Cc3nc4ccccc4o3)CC2)c1` [compound 340] was run?
**A.** −

**Q.** For `Cc1ncnc(N2CCN(Cc3nc4ccc(F)cc4o3)CC2)c1C` [compound 301, 2-((4-(5,6-dimethylpyrimidin-4-yl)piperazin-1-yl)methyl)-6-fluorobenzo[d]oxazole], which “COL1 Efficacy (LogEC50)” value is on record?
**A.** +++ (+++: <−6)

**Q.** `c1ccc2c(CN3CCN(c4ccncc4)CC3)c[nH]c2c1` [compound 277, 3-((4-(pyridin-4-yl)piperazin-1-yl)methyl)-1H-indole bis 2,2,2-trifluoroacetate] was tested. Which “COL1 Efficacy (LogEC50)” value did it give?
**A.** −

**Q.** How did the “COL1 Efficacy (LogEC50)” value turn out when `Cn1cnc(N2CCN(Cc3nc4ccccc4o3)CC2)n1` [compound 326, 2-((4-(1-methyl-1H-1,2,4-triazol-3-yl)piperazin-1-yl)methyl)benzo[d]oxazole] was run?
**A.** + (+: >−5)

**Q.** How did the “COL1 Efficacy (LogEC50)” value turn out when `Nc1ccc2[nH]c(CN3CCN(c4ccncc4)CC3)cc2c1` [compound 246, 2-[[4-(4-pyridyl)piperazin-1-yl]methyl]-1H-indol-5-amine] was run?
**A.** ++ (++: −5 to −6)

**Q.** For `CS(=O)(=O)Nc1ccc2[nH]c(CN3CCN(c4ccncc4)CC3)cc2c1` [compound 251, N-[2-[[4-(4-pyridyl)piperazin-1-yl]methyl]-1H-indol-5-yl]methanesulfonamide], which “COL1 Efficacy (LogEC50)” value is on record?
**A.** + (+: >−5)

**Q.** With `Cn1cc(N2CCN(Cc3cc4ccc(F)cc4[nH]3)CC2)nn1` [compound 331] as the molecule, how does the “COL1 Efficacy (LogEC50)” value read?
**A.** −

**Q.** With `CC(C)CC(=O)N1CCN(Cc2cc3ccccc3[nH]2)CC1` [Compound 239, 1-[4-(1H-indol-2-ylmethyl)piperazin-1-yl]-3-methyl-butan-1-one] as the molecule, how does the “COL1 Efficacy (LogEC50)” value read?
**A.** ++ (++: −5 to −6)

**Q.** With `Cc1ncnc(N2CC3CC2CN3Cc2nc3ccc(F)cc3o2)c1C` (stereo not shown) [compound 334, 2-((5-(5,6-dimethylpyrimidin-4-yl)-2,5-diazabicyclo[2.2.1]heptan-2-yl)methyl)-6-fluorobenzo[d]oxazole] as the molecule, how does the “COL1 Efficacy (LogEC50)” value read?
**A.** +++ (+++: <−6)
